Data from patent US20230027066A1 (Urovant Sciences GmbH, priority 2019, published 2023).

Key:
[1] = ABPM study, in-clinic vital signs; assay type: in vivo, human; details: SAF; for In-clinic vital signs change from baseline ≥5, subjects / In-clinic vital signs change from baseline ≥10, subjects / In-clinic vital signs change from baseline ≥15, subjects: parameter not given (Table 111)
Method: Safety was evaluated by assessment of clinical laboratory tests, physical examinations, and vital signs measurements from office visits at various time points during the study, and by the documentation of AEs.
Tables 106, 107, and 108 show the changes to in-clinic measurements of systolic blood pressure, diastolic blood pressure, and heart rate over the treatment period.
For subjects with a body weight of at least about 65.4 kg, there was no difference between treatment and placebo in the number of subjects with a ≥5, ≥10, or ≥15 mm Hg increase in systolic blood pressure. The same was true for subjects over the age of 66.

[2] = QTc study comparison mirabegron and vibegron, BP and HR in healthy subjects; assay type: in vivo, human; details: for HR change at Cmax, placebo adjusted / SBP change 24-hour average, placebo adjusted / SBP change at Cmax, placebo adjusted: healthy subjects
[3] = Baseline to Day 28, subgroup Age <= 75th percentile (66 years)
[4] = Baseline to Day 28, subgroup Age > 75th percentile (66 years)
[5] = Baseline to Day 28, subgroup Body Weight <= 25th Percentile (65.4 kg)
[6] = Baseline to Day 28, subgroup Body Weight > 25th Percentile (65.4 kg)
[7] = Baseline to Day 28, subgroup Pre-existing hypertension: NO
[8] = Baseline to Day 28, subgroup Pre-existing hypertension: YES
[9] = Baseline to Day 28, subgroup eGFR <= 25th Percentile (72 mL/min/1.73 m^2)
[10] = Baseline to Day 28, subgroup eGFR > 25th Percentile (72 mL/min/1.73 m^2)
[11] = Baseline to End of Treatment, subgroup <= 25th percentile BW (65.4 kg)
[12] = Baseline to End of Treatment, subgroup >25th percentile BW (65.4 kg)
[13] = Baseline to End of Treatment, subgroup Age <= 75th percentile (66 years)
[14] = Baseline to End of Treatment, subgroup Age > 75th percentile (66 years)
[15] = Baseline to End of Treatment, subgroup Pre-existing hypertension: NO
[16] = Baseline to End of Treatment, subgroup Pre-existing hypertension: YES
[17] = Baseline to End of Treatment, subgroup eGFR <= 25th percentile (72 mL/min/1.73 m^2)
[18] = Baseline to End of Treatment, subgroup eGFR > 25th percentile (72 mL/min/1.73 m^2)
[19] = Over 28 Days on 3 Consecutive Visits
[20] = Over 28 Days on 3 Consecutive Visits, subgroup Body Weight <= 25th Percentile (65.4 kg)
[21] = Over 28 Days on 3 Consecutive Visits, subgroup Body Weight > 25th Percentile (65.4 kg)
[22] = Over 28 Days on 3 Consecutive Visits, subgroup eGFR <= 25th Percentile (72 mL/min/1.73 m^2)
[23] = Over 28 Days on 3 Consecutive Visits, subgroup eGFR > 25th Percentile (72 mL/min/1.73 m^2)

Structure (SMILES): O=C(Nc1ccc(C[C@@H]2CC[C@H]([C@H](O)c3ccccc3)N2)cc1)[C@@H]1CCc2nccc(=O)n21 [Vibegron, (6S)-N-[4-[[(2S,5R)−5-[(R)-hydroxy(phenyl)methyl]pyrrolidin−2-yl]methyl]phenyl]−4-oxo−7,8-dihydro−6H-pyrrolo[1,2-a]pyrimidine−6-carboxamide]
- In-clinic DBP (mmHg) change from baseline ≥5, subjects ([1]; Baseline to Day 28): 24 (23.3) n (%)
- In-clinic DBP (mmHg) change from baseline ≥10, subjects ([1]; Baseline to Day 28): 9 (8.7) n (%)
- In-clinic DBP (mmHg) change from baseline ≥15, subjects ([1]; Baseline to Day 28): 2 (1.9) n (%)
- In-clinic HR (bpm) change from baseline ≥5, subjects ([1]; Baseline to Day 28): 24 (23.3) n (%)
- In-clinic HR (bpm) change from baseline ≥10, subjects ([1]; Baseline to Day 28): 8 (7.8) n (%)
- In-clinic HR (bpm) change from baseline ≥15, subjects ([1]; Baseline to Day 28): 3 (2.9) n (%)
- In-clinic SBP (mmHg) change from baseline ≥5, subjects ([1]; Baseline to Day 28): 33 (32.0) n (%)
- In-clinic SBP (mmHg) change from baseline ≥10, subjects ([1]; Baseline to Day 28): 22 (21.4) n (%)
- In-clinic SBP (mmHg) change from baseline ≥15, subjects ([1]; Baseline to Day 28): 10 (9.7) n (%)
- In-clinic SBP change from baseline ≥5, subjects [1, 3]: 28 (34.6) n (%)
- In-clinic SBP change from baseline ≥10, subjects [1, 3]: 18 (22.2) n (%)
- In-clinic SBP change from baseline ≥15, subjects [1, 3]: 9 (11.1) n (%)
- In-clinic SBP change from baseline ≥5, subjects [1, 4]: 5 (22.7) n (%)
- In-clinic SBP change from baseline ≥10, subjects [1, 4]: 4 (18.2) n (%)
- In-clinic SBP change from baseline ≥15, subjects [1, 4]: 1 (4.5) n (%)
- In-clinic SBP change from baseline ≥5, subjects [1, 5]: 9 (32.1) n (%)
- In-clinic SBP change from baseline ≥10, subjects [1, 5]: 6 (21.4) n (%)
- In-clinic SBP change from baseline ≥15, subjects [1, 5]: 2 (7.1) n (%)
- In-clinic SBP change from baseline ≥5, subjects [1, 6]: 24 (32.0) n (%)
- In-clinic SBP change from baseline ≥10, subjects [1, 6]: 16 (21.3) n (%)
- In-clinic SBP change from baseline ≥15, subjects [1, 6]: 8 (10.7) n (%)
- In-clinic SBP change from baseline ≥5, subjects [1, 7]: 20 (31.3) n (%)
- In-clinic SBP change from baseline ≥10, subjects [1, 7]: 13 (20.3) n (%)
- In-clinic SBP change from baseline ≥15, subjects [1, 7]: 6 (9.4) n (%)
- In-clinic SBP change from baseline ≥5, subjects [1, 8]: 13 (33.3) n (%)
- In-clinic SBP change from baseline ≥10, subjects [1, 8]: 9 (23.1) n (%)
- In-clinic SBP change from baseline ≥15, subjects [1, 8]: 4 (10.3) n (%)
- In-clinic SBP change from baseline ≥5, subjects [1, 9]: 7 (23.3) n (%)
- In-clinic SBP change from baseline ≥10, subjects [1, 9]: 4 (13.3) n (%)
- In-clinic SBP change from baseline ≥15, subjects [1, 9]: 1 (3.3) n (%)
- In-clinic SBP change from baseline ≥5, subjects [1, 10]: 26 (35.6) n (%)
- In-clinic SBP change from baseline ≥10, subjects [1, 10]: 18 (24.7) n (%)
- In-clinic SBP change from baseline ≥15, subjects [1, 10]: 9 (12.3) n (%)
- In-clinic DBP (mmHg) change from baseline ≥5, subjects ([1]; Baseline to End of Treatment): 31 (29.5) n (%)
- In-clinic DBP (mmHg) change from baseline ≥10, subjects ([1]; Baseline to End of Treatment): 12 (11.4) n (%)
- In-clinic DBP (mmHg) change from baseline ≥15, subjects ([1]; Baseline to End of Treatment): 7 (6.7) n (%)
- In-clinic HR (bpm) change from baseline ≥5, subjects ([1]; Baseline to End of Treatment): 37 (35.2) n (%)
- In-clinic HR (bpm) change from baseline ≥10, subjects ([1]; Baseline to End of Treatment): 12 (11.4) n (%)
- In-clinic HR (bpm) change from baseline ≥15, subjects ([1]; Baseline to End of Treatment): 4 (3.8) n (%)
- In-clinic SBP (mmHg) change from baseline ≥5, subjects ([1]; Baseline to End of Treatment): 36 (34.3) n (%)
- In-clinic SBP (mmHg) change from baseline ≥10, subjects ([1]; Baseline to End of Treatment): 22 (21.0) n (%)
- In-clinic SBP (mmHg) change from baseline ≥15, subjects ([1]; Baseline to End of Treatment): 13 (12.4) n (%)
- In-clinic SBP change from baseline ≥5, subjects [1, 11]: 13 (43.3) n (%)
- In-clinic SBP change from baseline ≥10, subjects [1, 11]: 9 (30.0) n (%)
- In-clinic SBP change from baseline ≥15, subjects [1, 11]: 5 (16.7) n (%)
- In-clinic SBP change from baseline ≥5, subjects [1, 12]: 23 (30.7) n (%)
- In-clinic SBP change from baseline ≥10, subjects [1, 12]: 13 (17.3) n (%)
- In-clinic SBP change from baseline ≥15, subjects [1, 12]: 8 (10.7) n (%)
- In-clinic SBP change from baseline ≥5, subjects [1, 13]: 29 (34.9) n (%)
- In-clinic SBP change from baseline ≥10, subjects [1, 13]: 18 (21.7) n (%)
- In-clinic SBP change from baseline ≥15, subjects [1, 13]: 10 (12.0) n (%)
- In-clinic SBP change from baseline ≥5, subjects [1, 14]: 7 (31.8) n (%)
- In-clinic SBP change from baseline ≥10, subjects [1, 14]: 4 (18.2) n (%)
- In-clinic SBP change from baseline ≥15, subjects [1, 14]: 3 (13.6) n (%)
- In-clinic SBP change from baseline ≥5, subjects [1, 15]: 22 (33.3) n (%)
- In-clinic SBP change from baseline ≥10, subjects [1, 15]: 14 (21.2) n (%)
- In-clinic SBP change from baseline ≥15, subjects [1, 15]: 9 (13.6) n (%)
- In-clinic SBP change from baseline ≥5, subjects [1, 16]: 14 (35.9) n (%)
- In-clinic SBP change from baseline ≥10, subjects [1, 16]: 8 (20.5) n (%)
- In-clinic SBP change from baseline ≥15, subjects [1, 16]: 4 (10.3) n (%)
- In-clinic SBP change from baseline ≥5, subjects [1, 17]: 13 (43.3) n (%)
- In-clinic SBP change from baseline ≥10, subjects [1, 17]: 9 (30.0) n (%)
- In-clinic SBP change from baseline ≥15, subjects [1, 17]: 6 (20.0) n (%)
- In-clinic SBP change from baseline ≥5, subjects [1, 18]: 23 (30.7) n (%)
- In-clinic SBP change from baseline ≥10, subjects [1, 18]: 13 (17.3) n (%)
- In-clinic SBP change from baseline ≥15, subjects [1, 18]: 7 (9.3) n (%)
- In-clinic DBP (mmHg) change from baseline ≥5, subjects [1, 19]: 5 (5.1) n (%)
- In-clinic DBP (mmHg) change from baseline ≥10, subjects [1, 19]: 3 (3.1) n (%)
- In-clinic DBP (mmHg) change from baseline ≥15, subjects [1, 19]: 0 n (%)
- In-clinic HR (bpm) change from baseline ≥5, subjects [1, 19]: 6 (6.1) n (%)
- In-clinic HR (bpm) change from baseline ≥10, subjects [1, 19]: 3 (3.1) n (%)
- In-clinic HR (bpm) change from baseline ≥15, subjects [1, 19]: 0 n (%)
- In-clinic SBP (mmHg) change from baseline ≥5, subjects [1, 19]: 14 (14.3) n (%)
- In-clinic SBP (mmHg) change from baseline ≥10, subjects [1, 19]: 6 (6.1) n (%)
- In-clinic SBP (mmHg) change from baseline ≥15, subjects [1, 19]: 0 n (%)
- In-clinic vital signs change from baseline ≥5, subjects [1, 20]: 6 (23.1) n (%)
- In-clinic vital signs change from baseline ≥10, subjects [1, 20]: 2 (7.7) n (%)
- In-clinic vital signs change from baseline ≥15, subjects [1, 20]: 0 n (%)
- In-clinic vital signs change from baseline ≥5, subjects [1, 21]: 8 (11.1) n (%)
- In-clinic vital signs change from baseline ≥10, subjects [1, 21]: 4 (5.6) n (%)
- In-clinic vital signs change from baseline ≥15, subjects [1, 21]: 0 n (%)
- In-clinic vital signs change from baseline ≥5, subjects [1, 22]: 3 (10.7) n (%)
- In-clinic vital signs change from baseline ≥10, subjects [1, 22]: 1 (3.6) n (%)
- In-clinic vital signs change from baseline ≥15, subjects [1, 22]: 0 n (%)
- In-clinic vital signs change from baseline ≥5, subjects [1, 23]: 11 (15.7) n (%)
- In-clinic vital signs change from baseline ≥10, subjects [1, 23]: 5 (7.1) n (%)
- In-clinic vital signs change from baseline ≥15, subjects [1, 23]: 0 n (%)
- SBP change 24-hour average, 75 mg estimate, placebo adjusted ([2]; 75 mg estimate from QT study): 24-hour average: 0.1 mmHg
- SBP change at Cmax, 75 mg estimate, placebo adjusted ([2]; 75 mg estimate from QT study): At Cmax: 0.4 mmHg
- HR change at Cmax, placebo adjusted ([2]; 200 mg single-dose): 4.1 BPM
- SBP change 24-hour average, placebo adjusted ([2]; 200 mg single-dose): +0.7 mmHg
- SBP change at Cmax, placebo adjusted ([2]; 200 mg single-dose): +2.2 mmHg
- HR change at Cmax, placebo adjusted ([2]; 400 mg single-dose): 11.2 BPM
- SBP change 24-hour average, placebo adjusted ([2]; 400 mg single-dose): 1.3 mmHg
- SBP change at Cmax, placebo adjusted ([2]; 400 mg single-dose): +3.97 mmHg
